≈ marks a conversion by molar mass, not a printed value. Calls of active or inactive are those of the source. No cut-off for these calls is given here.
Experiments:
[1] = system: Staphylococcus aureus; experiment: Antibiofilm activity against methicillin-susceptible Staphylococcus aureus ATCC 29213 assessed as inhibition of biofilm formation incubated for 24 hrs by crystal violet staining based analysis; format: functional; conditions: dose 1.56-100 µg/ml
[2] = system: Staphylococcus aureus; experiment: Antibiofilm activity against methicillin-resistant Staphylococcus aureus ATCC 33591 assessed as inhibition of biofilm formation incubated for 24 hrs by crystal violet staining based analysis; format: functional; conditions: dose 1.56-100 µg/ml
[3] = system: Staphylococcus aureus; experiment: Antibiofilm activity against methicillin-susceptible Staphylococcus aureus ATCC 29213 assessed as biofilm eradication incubated for 24 hrs by crystal violet staining based analysis; format: functional
[4] = system: Staphylococcus aureus; experiment: Antibiofilm activity against methicillin-resistant Staphylococcus aureus ATCC 33591 assessed as biofilm eradication incubated for 24 hrs by crystal violet staining based analysis; format: functional
[5] = system: Staphylococcus aureus; experiment: Antibacterial activity against methicillin-susceptible Staphylococcus aureus ATCC 29213 assessed as bacterial growth inhibition incubated for 24 hrs by CLSI based microbroth dilution method; format: functional
[6] = system: Staphylococcus aureus; experiment: Antibacterial activity against methicillin-resistant Staphylococcus aureus ATCC 33591 assessed as bacterial growth inhibition incubated for 24 hrs by CLSI based microbroth dilution method; format: functional
[7] = system: Staphylococcus aureus; experiment: Antibacterial activity against methicillin-susceptible Staphylococcus aureus ATCC 29213 assessed as planktonic growth inhibition at 25 to 50 ug/mL incubated for 24 hrs; format: functional, organism-based; conditions: dose 25-50 µg/ml
[8] = system: Staphylococcus aureus; experiment: Antibacterial activity against methicillin-resistant Staphylococcus aureus ATCC ATCC 33591 assessed as planktonic growth inhibition at 25 to 50 ug/mL incubated for 24 hrs; format: functional, organism-based; conditions: dose 25-50 µg/ml
[9] = system: Staphylococcus aureus; experiment: Antibacterial activity against methicillin-resistant Staphylococcus aureus ATCC 33591 assessed as MBC to MIC ratio; format: functional
[10] = Cytotoxicity against human A549 cells assessed as inhibition of cell growth measured after 48 hrs by MTT assay; format: toxicity, cell-based
[11] = system: Staphylococcus aureus; experiment: Antibiofilm activity against methicillin-susceptible Staphylococcus aureus ATCC 29213 assessed as disruption of biofilm incubated for 24 hrs by crystal violet staining based inverted microscopic analysis; format: functional, organism-based; conditions: dose 1.56-12.5 µg/ml
[12] = system: Staphylococcus aureus; experiment: Antibiofilm activity against methicillin-resistant Staphylococcus aureus ATCC 33591 assessed as disruption of biofilm incubated for 24 hrs by crystal violet staining based inverted microscopic analysis; format: functional, organism-based; conditions: dose 1.56-12.5 µg/ml

SMILES | MBIC50 [1] | MBIC50 [2] | MBEC50 [3] [µg/mL] | other results
CC1(C)C(c2cnn(-c3ccc(C(=O)O)cc3)c2)=Nc2ccccc21 | 6.25 µg/mL | 50 µg/mL | >100 | –
COc1ccc2c(c1)C(C)(C)C(c1cnc3c4ccc(Br)cc4nn3c1)=N2 | >100 µg/mL | – | >100 | –
CC1(C)C(c2cnn(-c3ccc(C(=O)NCc4ccc(F)cc4)cc3)c2)=Nc2ccc3ccccc3c21 | >100 µg/mL | – | – | –
COc1ccc(NC(=O)c2ccc(-n3cc(C4=Nc5ccccc5C4(C)C)cn3)cc2)cc1 | >100 µg/mL | – | – | –
Oc1cc(Cl)ccc1Oc1ccc(Cl)cc1Cl [TRICLOSAN] | <=1.56 ug ml-1 | <=1.56 ug ml-1 | 3.13 | MBEC50 [4]: 6.25 µg/mL
COc1ccc2c(c1)C(C)(C)C(c1cnc3c4ccccc4nn3c1)=N2 | >100 µg/mL | 50 µg/mL | >100 | –
CC1(C)C(c2cnn(-c3ccc(C(=O)NCCc4ccccc4)cc3)c2)=Nc2ccccc21 | >100 µg/mL | – | – | –
COc1cccc2nn3cc(C4=Nc5ccc6ccccc6c5C4(C)C)cnc3c12 | >100 µg/mL | – | >100 | MBEC50 [4]: 100 µg/mL
CC1(C)C(c2cnc3c4ccc(C(F)(F)F)cc4nn3c2)=Nc2ccccc21 | 100 µg/mL | 12.5 µg/mL | >100 | –
Cc1ccc(CNC(=O)c2ccc(-n3cc(C4=Nc5ccccc5C4(C)C)cn3)cc2)cc1 | >100 µg/mL | – | – | –
COc1cccc2nn3cc(C4=Nc5ccccc5C4(C)C)cnc3c12 | 50 µg/mL | >100 µg/mL | >100 | –
CCOC(=O)c1ccc2c(c1)C(C)(C)C(c1cnc3c4ccc(Br)cc4nn3c1)=N2 | >100 µg/mL | – | >100 | –
CC1(C)C(c2cnn(-c3ccc(C(=O)NCc4cccnc4)cc3)c2)=Nc2ccccc21 | >100 µg/mL | – | – | –
CC1(C)C(c2cnn(-c3ccc(C(=O)NCc4ccc(F)cc4)cc3)c2)=Nc2ccccc21 | >100 µg/mL | – | – | –
CC1(C)C(c2cnn(-c3ccc(C(=O)NC4CCCCC4)cc3)c2)=Nc2ccccc21 | >100 µg/mL | – | – | –
CC1(C)C(c2cnn(-c3ccc(C(=O)NCCc4ccccc4)cc3)c2)=Nc2ccc3ccccc3c21 | >100 µg/mL | – | – | –
Cc1ccc(NC(=O)c2ccc(-n3cc(C4=Nc5ccccc5C4(C)C)cn3)cc2)cc1 | >100 µg/mL | – | – | –
CC1(C)C(c2cnc3c4ccc(Br)cc4nn3c2)=Nc2c1ccc1ccccc21 | >100 µg/mL | 50 µg/mL | >100 | –
CCOC(=O)c1ccc2c(c1)C(C)(C)C(c1cnc3c4ccccc4nn3c1)=N2 | >100 µg/mL | 100 µg/mL | >100 | –
CC1(C)C(c2cnn(-c3ccc(C(=O)Nc4ccc(F)cc4)cc3)c2)=Nc2ccc3ccccc3c21 | >100 µg/mL | – | – | –
CC1(C)C(c2cnc3c4ccccc4nn3c2)=Nc2ccc3ccccc3c21 | >100 µg/mL | 50 µg/mL | >100 | –
CC1(C)C(c2cnn(-c3ccc(C(=O)Nc4ccccc4)cc3)c2)=Nc2ccccc21 | >100 µg/mL | – | – | –
CC1(C)C(c2cnc3c4ccccc4nn3c2)=Nc2ccccc21 | >100 µg/mL | 100 µg/mL | 100 | MBEC50 [4]: >100 µg/mL
CC1(C)C(c2cnc3c4ccc(Br)cc4nn3c2)=Nc2ccc3ccccc3c21 | >100 µg/mL | – | >100 | –

SMILES | MBIC50 [1] | MBIC50 [2] | MBEC50 [3] [µg/mL] | other results
CCOC(=O)c1ccc2c(c1)C(C)(C)C(c1cnc3c4ccc(C(F)(F)F)cc4nn3c1)=N2 | 100 µg/mL | – | >100 | MBEC50 [4]: 100 µg/mL
CC1(C)C(c2cnc3c4ccc(Br)cc4nn3c2)=Nc2ccccc21 | >100 µg/mL | 100 µg/mL | >100 | –
CC1(C)C(c2cnc3c4ccc(C(F)(F)F)cc4nn3c2)=Nc2ccc3ccccc3c21 | 50 µg/mL | – | >100 | –
CC1(C)C(c2cnn(-c3ccc(C(=O)Nc4ccncc4)cc3)c2)=Nc2ccc3ccccc3c21 | >100 µg/mL | – | – | –
COc1cccc2nn3cc(C4=Nc5c(ccc6ccccc56)C4(C)C)cnc3c12 | 12.5 µg/mL | – | >100 | –
CN(C)c1ccccc1NC(=O)c1ccc(-n2cc(C3=Nc4ccccc4C3(C)C)cn2)cc1 | >100 µg/mL | – | – | –
CC1(C)C(c2cnn(-c3ccc(C(=O)Nc4ccncc4)cc3)c2)=Nc2ccccc21 | >100 µg/mL | – | – | –
COc1ccc2c(c1)C(C)(C)C(c1cnn(-c3ccc(C(=O)O)cc3)c1)=N2 | 12.5 µg/mL | 100 µg/mL | >100 | –
CC1(C)C(c2cnn(-c3ccc(C(=O)Nc4ccc(Cl)cc4)cc3)c2)=Nc2ccccc21 | >100 µg/mL | – | – | –
N=C(NCCCCCCNC(=N)NC(=N)Nc1ccc(Cl)cc1)NC(=N)Nc1ccc(Cl)cc1 [CHLORHEXIDINE] | 3.13 µg/mL | <=1.56 ug ml-1 | 12.5 | MBEC50 [4]: 3.13 µg/mL
CC1(C)C(c2cnn(-c3ccc(C(=O)O)cc3)c2)=Nc2ccc3ccccc3c21 | <=1.56 ug ml-1 | 3.13 µg/mL | 12.5 | MBEC50 [4]: 6.25 µg/mL; MIC [5]: 25 µg/mL (≈ 65.5 µM); MIC [6]: 25 µg/mL (≈ 65.5 µM); inhibition [7]: Active; inhibition [8]: Active; Ratio [9]: >4; inhibition [1]: Dose-Dependent Effect; inhibition [2]: Dose-Dependent Effect; IC50 at 48 h [10]: > 100 µg/mL; Activity [11]: Dose-Dependent Effect; Activity [12]: Dose-Dependent Effect
COc1ccc2c(c1)C(C)(C)C(c1cnc3c4c(OC)cccc4nn3c1)=N2 | >100 µg/mL | 25 µg/mL | >100 | –
CC1(C)C(c2cnn(-c3ccc(C(=O)Nc4ccc(F)cc4)cc3)c2)=Nc2ccccc21 | >100 µg/mL | – | – | –
CCCCNC(=O)c1ccc(-n2cc(C3=Nc4ccccc4C3(C)C)cn2)cc1 | >100 µg/mL | – | – | –
CC1(C)C(c2cnn(-c3ccc(C(=O)Nc4ccc(Cl)cc4)cc3)c2)=Nc2ccc3ccccc3c21 | >100 µg/mL | – | – | –
CC1(C)C(c2cnn(-c3ccccc3)c2)=Nc2ccc(C(=O)O)cc21 | 12.5 µg/mL | <=1.56 ug ml-1 | >100 | MBEC50 [4]: 25 µg/mL; IC50 at 48 h [10]: > 100 µg/mL
Cc1ccccc1NC(=O)c1ccc(-n2cc(C3=Nc4ccccc4C3(C)C)cn2)cc1 | >100 µg/mL | – | – | –
CC1(C)C(c2cnn(-c3ccc(C(=O)O)cc3)c2)=Nc2ccc(Cl)cc21 | 6.25 µg/mL | – | 12.5 | MBEC50 [4]: 50 µg/mL; IC50 at 48 h [10]: > 100 µg/mL
COc1ccc2c(c1)C(C)(C)C(c1cnc3c4ccc(C(F)(F)F)cc4nn3c1)=N2 | 100 µg/mL | – | >100 | MBEC50 [4]: 100 µg/mL
CC1(C)C(c2cnc3c4ccc(C(F)(F)F)cc4nn3c2)=Nc2c1ccc1ccccc21 | >100 µg/mL | 100 µg/mL | >100 | –
CC1(C)C(c2cnc3c4ccccc4nn3c2)=Nc2c1ccc1ccccc21 | 25 µg/mL | 6.25 µg/mL | >100 | –
CCOC(=O)c1ccc2c(c1)C(C)(C)C(c1cnc3c4c(OC)cccc4nn3c1)=N2 | >100 µg/mL | 12.5 µg/mL | >100 | –
CC1(C)C(c2cnn(-c3ccc(C(=O)NCc4ccccc4)cc3)c2)=Nc2ccccc21 | >100 µg/mL | – | – | –
